Assay results as given in patent US20220062240A1, “METHODS OF TREATING CANCER USING A CLK INHIBITOR” (BioSplice Therapeutics, Inc., priority 2018, published 2022).
Like-named read-outs stand apart in the source and are kept apart here.

Key:
[1] = tested on: colorectal cancer (6 cell lines); test: CellTiter-Glo Viability Assay, colorectal cancer; format: cell-based; conditions: Homo sapiens, inhibition of cancer cell proliferation
[2] = target: CLK3 (Homo sapiens, UniProt P49761); test: CLK3 kinase activity assay (Z-lyte, Ser/Thr 18 peptide)
[3] = tested on: ovarian cancer (4 cell lines); test: CellTiter-Glo Viability Assay, ovarian cancer; format: cell-based; conditions: Homo sapiens, inhibition of cancer cell proliferation
[4] = tested on: haematopoietic & lymphoid tumors (13 cell lines); test: CellTiter-Glo Viability Assay, haematopoietic & lymphoid tumors; format: cell-based; conditions: Homo sapiens, inhibition of cancer cell proliferation
[5] = tested on: HCC1599; test: CellTiter-Glo Viability Assay, breast cancer; format: cell-based; conditions: Homo sapiens, 96 h; HCC1599, breast cancer, four days; read-out: EC50
[6] = tested on: ZR-75-1; test: CellTiter-Glo Viability Assay, breast cancer; format: cell-based; conditions: Homo sapiens, 96 h; ZR-75-1, breast cancer, four days; read-out: EC50
[7] = tested on: DU4475; test: CellTiter-Glo Viability Assay, breast cancer; format: cell-based; conditions: Homo sapiens, DU-4475, 96 h; DU4475, breast cancer, four days; read-out: EC50
[8] = tested on: CAMA1; test: CellTiter-Glo Viability Assay, breast cancer; format: cell-based; conditions: Homo sapiens, CAMA-1, 96 h; CAMA1, breast cancer, four days; read-out: EC50
[9] = tested on: MDA-MB-231-Luc; test: CellTiter-Glo Viability Assay, breast cancer; format: cell-based; conditions: Homo sapiens, 96 h; MDA-MB-231-Luc, breast cancer, four days; read-out: EC50
[10] = tested on: BT-549; test: CellTiter-Glo Viability Assay, breast cancer; format: cell-based; conditions: Homo sapiens, 96 h; BT-549, breast cancer, four days; read-out: EC50
[11] = tested on: MCF7; test: CellTiter-Glo Viability Assay, breast cancer; format: cell-based; conditions: Homo sapiens, 96 h; MCF7, breast cancer, four days; read-out: EC50
[12] = tested on: T47D; test: CellTiter-Glo Viability Assay, breast cancer; format: cell-based; conditions: Homo sapiens, 96 h, breast cancer, four days, read-out: EC50
[13] = tested on: all 50 cell lines; test: CellTiter-Glo Viability Assay, average across all cell lines; format: cell-based; conditions: Homo sapiens; across all 50 cell lines; read-out: average EC50 for inhibition of cancer cell proliferation
Outline: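 Luminescent ATP read-out (CellTiter-Glo) after a 4-day compound exposure at 37° C served as the viability measure. Cells were seeded at 300-3,000/well, compound wells run in duplicate against DMSO controls, and EC50 values came from fitted dose-response curves.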

[14] = tested on: lung cancer (4 cell lines); test: CellTiter-Glo Viability Assay, lung cancer; format: cell-based; conditions: Homo sapiens, inhibition of cancer cell proliferation
[15] = tested on: liver cancer (3 cell lines); test: CellTiter-Glo Viability Assay, liver cancer; format: cell-based; conditions: Homo sapiens, inhibition of cancer cell proliferation
[16] = tested on: prostate cancer (5 cell lines); test: CellTiter-Glo Viability Assay, prostate cancer; format: cell-based; conditions: Homo sapiens
[17] = target: T1, CLK2 (Homo sapiens, UniProt P49760); test: CLK2 kinase activity assay (Z-lyte, Ser/Thr 6 peptide); format: biochemical; conditions: recombinant CLK2 kinase, ATP 60 μM; read-out: EC50
T1 construct: purchased Thermo Fisher (Life Technologies), Z'-LYTE Kinase Assay Kits
Method: All reactions were performed in duplicate.

[18] = tested on: pancreatic cancer (8 cell lines); test: CellTiter-Glo Viability Assay, pancreatic cancer; format: cell-based; conditions: Homo sapiens, inhibition of cancer cell proliferation

T1 sequence (P49760 whole entry): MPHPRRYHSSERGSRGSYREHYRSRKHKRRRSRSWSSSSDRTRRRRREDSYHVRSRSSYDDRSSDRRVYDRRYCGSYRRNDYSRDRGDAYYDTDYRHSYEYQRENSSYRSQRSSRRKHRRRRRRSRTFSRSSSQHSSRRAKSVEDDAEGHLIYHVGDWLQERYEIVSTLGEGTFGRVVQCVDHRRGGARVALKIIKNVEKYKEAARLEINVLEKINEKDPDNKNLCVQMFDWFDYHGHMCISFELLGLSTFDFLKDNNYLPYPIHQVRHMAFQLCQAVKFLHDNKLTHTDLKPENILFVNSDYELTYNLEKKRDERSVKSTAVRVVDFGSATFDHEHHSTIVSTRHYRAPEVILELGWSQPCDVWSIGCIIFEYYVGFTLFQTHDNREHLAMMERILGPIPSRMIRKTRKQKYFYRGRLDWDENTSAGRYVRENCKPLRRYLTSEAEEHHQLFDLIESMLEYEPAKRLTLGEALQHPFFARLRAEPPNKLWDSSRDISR
Sequence of CLK3 (P49761 whole entry): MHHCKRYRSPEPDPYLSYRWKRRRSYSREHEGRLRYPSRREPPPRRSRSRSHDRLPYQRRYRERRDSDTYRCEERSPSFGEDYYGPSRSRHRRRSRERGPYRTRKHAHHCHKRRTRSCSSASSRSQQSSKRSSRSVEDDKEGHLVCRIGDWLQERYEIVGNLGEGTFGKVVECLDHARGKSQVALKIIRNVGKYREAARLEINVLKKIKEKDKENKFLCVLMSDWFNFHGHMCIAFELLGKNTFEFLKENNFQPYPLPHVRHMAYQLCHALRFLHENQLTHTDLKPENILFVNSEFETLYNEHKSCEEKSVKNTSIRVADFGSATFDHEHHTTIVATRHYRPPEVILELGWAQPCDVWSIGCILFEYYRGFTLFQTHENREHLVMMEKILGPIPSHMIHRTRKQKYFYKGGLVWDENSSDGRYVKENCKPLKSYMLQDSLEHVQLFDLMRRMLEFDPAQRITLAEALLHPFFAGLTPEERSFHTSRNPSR

EC50 ([1]; HCT-116, HCT116 cell line, read-out: Colorectal cancer, EC50 (μM) HCT116): 0.522 µM | EC50 ([1]; HT-29, HT29 cell line, read-out: Colorectal cancer, EC50 (μM) HT29): 2.8 µM | EC50 ([1]; SW-620, SW620 cell line, read-out: Colorectal cancer, EC50 (μM) SW620): 0.239 µM | EC50 ([1]; DLD-1 cell line, read-out: Colorectal cancer, EC50 (μM) DLD-1): 1.17 µM | EC50 ([1]; SW48 cell line, read-out: Colorectal cancer, EC50 (μM) SW48): 0.312 µM | EC50 ([1]; SW480 cell line, read-out: Colorectal cancer, EC50 (μM) SW480): 0.274 µM | EC50 [2]: 0.0351 µM | EC50 ([3]; PA-1, PA1 cell line, read-out: Ovarian cancer, EC50 (μM) PA1): 1.09 µM | EC50 ([3]; TOV112D, TOV-112D cell line, read-out: Ovarian cancer, EC50 (μM) TOV-112D): 0.419 µM | EC50 ([3]; OV-90 cell line, read-out: Ovarian cancer, EC50 (μM) OV-90): 1.34 µM | EC50 ([3]; OVCAR-3 cell line, read-out: Ovarian cancer, EC50 (μM) OVCAR-3): 0.67 µM | EC50 ([4]; DND41, DND-41 cell line, read-out: Haematopoietic & Lymphoid tumors, EC50 (μM) DND-41): 0.258 µM | EC50 ([4]; MV4-11, MV-4-11 cell line, read-out: Haematopoietic & Lymphoid tumors, EC50 (μM) MV-4-11): 0.122 µM | EC50 ([4]; Rec1, REC-1 cell line, read-out: Haematopoietic & Lymphoid tumors, EC50 (μM) REC-1): 3.62 µM | EC50 ([4]; SU-DHL-4, SUDHL4 cell line, read-out: Haematopoietic & Lymphoid tumors, EC50 (μM) SUDHL4): 0.419 µM | EC50 ([4]; HL-60 cell line, read-out: Haematopoietic & Lymphoid tumors, EC50 (μM) HL-60): 0.767 µM | EC50 ([4]; JM1 cell line, read-out: Haematopoietic & Lymphoid tumors, EC50 (μM) JM1): 0.256 µM | EC50 ([4]; JURKAT, Clone E6-1 cell line, read-out: Haematopoietic & Lymphoid tumors, EC50 (μM) JURKAT, Clone E6-1): 1.07 µM | EC50 ([4]; JeKo-1 cell line, read-out: Haematopoietic & Lymphoid tumors, EC50 (μM) JeKo-1): 0.159 µM | EC50 ([4]; KASUMI-1 cell line, read-out: Haematopoietic & Lymphoid tumors, EC50 (μM) KASUMI-1): 1.27 µM | EC50 ([4]; Loucy cell line, read-out: Haematopoietic & Lymphoid tumors, EC50 (μM) Loucy): 0.174 µM | EC50 ([4]; MOLT-4 cell line, read-out: Haematopoietic & Lymphoid tumors, EC50 (μM) MOLT-4): 1.29 µM | EC50 ([4]; TF-1 cell line, read-out: Haematopoietic & Lymphoid tumors, EC50 (μM) TF-1): 2.73 µM | EC50 ([4]; TOLEDO cell line, read-out: Haematopoietic & Lymphoid tumors, EC50 (μM) TOLEDO): 0.441 µM | EC50 [5]: 0.828 µM | EC50 [6]: 1.11 µM | EC50 [7]: 0.75 µM | EC50 [8]: 0.919 µM | EC50 [9]: 1.2 µM | EC50 [10]: 1.53 µM | EC50 [11]: 3.52 µM | EC50 [12]: 1.74 µM | EC50 ([14]; A-427, A427 cell line, read-out: Lung cancer, EC50 (μM) A427): 0.489 µM | EC50 ([14]; HCC78, HCC-78 cell line, read-out: Lung cancer, EC50 (μM) HCC-78): 0.92 µM | EC50 ([14]; NCI-H460 cell line, read-out: Lung cancer, EC50 (μM) NCI-H460): 9.68 µM | EC50 ([14]; NCI-H522 cell line, read-out: Lung cancer, EC50 (μM) NCI-H522): 0.31 µM | EC50 ([15]; SNU-398, SNU398 cell line, read-out: Liver cancer, EC50 SNU398): 0.091 µM | EC50 ([15]; HEPG2 cell line, read-out: Liver cancer, EC50 HEPG2): 1.46 µM | EC50 ([15]; PLC/PRF/5 cell line, read-out: Liver cancer, EC50 PLC/PRF/5): 3.54 µM | EC50 ([16]; DU-145, read-out: Prostate cancer EC50 Du-145): 0.955 µM | EC50 ([16]; PC-3, PC3 cell line, inhibition of cancer cell proliferation, read-out: Prostate cancer EC50 PC3): 0.759 µM | EC50 ([16]; 22Rv1 cell line, inhibition of cancer cell proliferation, read-out: Prostate cancer EC50 22Rv1): 0.833 µM | EC50 ([16]; LNCap clone FGC cell line, inhibition of cancer cell proliferation, read-out: Prostate cancer EC50 LNCap clone FGC): 1.64 µM | EC50 ([16]; VCaP (Sigma) cell line, inhibition of cancer cell proliferation, read-out: Prostate cancer EC50 VCaP (Sigma)): 1.79 µM | EC50 [17]: 0.0038 µM | EC50 ([18]; BXPC-3, BxPC3 cell line, read-out: Pancreatic cancer, EC50 BxPC3): 3.41 µM | EC50 ([18]; CAPAN-1, Capan1 cell line, read-out: Pancreatic cancer, EC50 Capan1): 3.51 µM | EC50 ([18]; Capan-2, Capan2 cell line, read-out: Pancreatic cancer, EC50 Capan2): 2.21 µM | EC50 ([18]; MIA PaCa-2 cell line, read-out: Pancreatic cancer, EC50 MIA PaCa-2): 0.381 µM | EC50 ([18]; PANC 05.04 cell line, read-out: Pancreatic cancer, EC50 PANC 05.04): 2.92 µM | EC50 ([18]; PANC-1 cell line, read-out: Pancreatic cancer, EC50 PANC-1): > 10 µM | EC50 ([18]; UPAFII cell line, read-out: Pancreatic cancer, EC50 UPAFII): 1.72 µM
SMILES: CC(C)CC(=O)Nc1cncc(-c2ccc3[nH]nc(-c4cc5c(N6CCCCC6)cncc5[nH]4)c3c2)c1 [Compound 50]
EC50 [13]: 1.59 µM
